This is an account of results in patent US20260276656A1, “GUT MICROBIOTA-RELATED METHODS FOR TREATING DEMENTIA AND AGE-DEPENDENT COGNITIVE DECLINE” (Albert-Ludwigs-Universitat Freiburg, priority 2019, published 2026).

In one assay the test system is C57BL/6J mice. Kind of assay: T-maze spontaneous alternation test (spatial working memory). The class given is in vivo, mouse. Conditions: for spatial working memory (T maze test): systemic (intraperitoneal) injection, FIG. 11 left; for T maze performance: 5 mg/kg i.p. 1 h before. The procedure: In order to acutely deplete the gut microbiota, 15-16 months old SPF males were treated via oral gavage with a mixture of antibiotics (ABX), containing Cefoxitin (Santa Cruz Biotechnology), Gentamicin (Sigma-Aldrich) Metronidazole (Sigma-Aldrich), and Vancomycin (Hikma-pharma), each 10 mg/kg in sterile 1×PBS, for three consecutive days. On the fourth day, the mice were treated with one dose of Clindamycin hydrochloride (33.3 mg/kg) (Sigma-Aldrich). Fecal microbiota transplantations (FMTs) were started 24 h later. To deplete csf1-dependent cells in vivo, including microglia, mice were provided with CSF1R-inhibitor PLX5622 (Plexxicon Inc.) mixed into AIN-76A standard chow at 1200 mg/kg (Research Diets Inc.) ad libitum. Respective controls received AIN-76A standard chow. Mice were injected with 5 mg/kg δ-valerobetaine (MCAT, Germany) 1 h before behavioral testing.
For microbiota depletion studies, SPF mice were treated with 1 mg/ml of ampicillin (Auromedics), neomycin sulfate (Fisher), streptomycin (Sigma) and 0.5 mg/ml of vancomycin (Sagent) in the drinking water for 4-5 weeks (Khosravi et al., 2014). These mice were recolonized via FMT, which was achieved by oral gavage of a faecal slurry. Recipient mice had the food removed from the cage for 2 h prior to FMT. The faecal slurry was obtained by pooling faecal pellets from 8-14 donor mice. The pellets were weighed and resuspended by vortexing for 1 min in 1 mL PBS per 300 mg of faeces. After pelleting larger particles by centrifugation at 500×g for 5 min, the supernatant was collected for FMT. Each recipient mouse received 150 μl of faecal slurry by oral gavage. The remaining slurry was stored at −80° C. for 16S rRNA sequencing. Following FMT, the cages of recipient mice were replenished with dirty bedding and fresh faecal pellets from donor mice once and twice a week, respectively. Faecal pellets for 16S rRNA sequencing were collected the day before FMT and at the end of the experiment and were stored at −80° C. for DNA extraction. For re-colonization of ABX treated mice, FMTs from 8 weeks old or 15-16 months old males were undergone. Fresh fecal pellets are collected under a sterile hood and directly thoroughly homogenized in 0.1% L-Cysteine hydrochloride monohydrate in 1×PBS in order to maintain anaerobic microbes. The homogenates were spun down for 1 min, 200 g at 4° C. and the turbid supernatant was used to orally and rectally gavage the recipient mice. The FMT was performed twice 72 h apart.
NNN-trimethyl-5-aminovalerate was dissolved in 0.9% NaCl and administered i.p. at a dose of 200 mg/kg in a volume of 10 ml/kg. As control the vehicle NaCl was injected.
Mice were tested 40 min after drug- or vehicle injection or 4 weeks after FMT. We first performed the training run for the Novel-object recognition test, followed by the T maze test and then 6 h after the training session mice were tested in the Novel object recognition test. Spatial working memory was tested using the continuous spontaneous alternation task in a T-maze as described previously (Spowart-Manning, L. et al). Briefly, animals were set into the base of a T-maze and allowed to explore a randomly assigned T-maze arm until it returned to the base arm. Subsequently, the blocked arm was opened, and the animal was allowed to explore the complete maze. Once one arm of the T-maze was entered, the other arm was blocked until the animal returned to the base arm. Then, the exit of the base arm was blocked for 5 s and the animal was allowed to explore the maze again. The experiment was stopped after 14 free choice arm entries. Arm entries were scored as alternations if an animal chose the opposing arm compared to the arm visited immediately prior to the scored instance. The Novel Object Recognition (NOR) task was applied to evaluate recognition memory as published previously (Antunes, M. & Biala, G. et al). During the habituation phase, each mouse was allowed to explore two similar objects within a total exploration time of 20 s. […]

In assay [1] the test system is parvalbumin-positive interneurons. Kind of assay: Spontaneous IPSC recordings from parvalbumin-positive interneurons in acute hippocampal slices. The class given is cell-based. To be noted: bath-applied, 10 μM; acute mouse hippocampal slices, area CA1. The procedure: Mice were anesthetized and decapitated, after which the brain was quickly removed and placed into oxygenated, ice-cold, high-sucrose artificial cerebrospinal fluid (hsACSF), containing (in mM): 150 sucrose, 50 NaCl, 25 NaHCO3, 10 dextrose, 2.5 KCl, 1 NaH2PO4·H2O, 0.5 CaCl2), and 7 MgCl2. After 2 min in hsACSF, the brain was blocked, glued to the stage of a Vibratome (VTS1000; Leica, Bannockburn, IL), and cut into 300-μm horizontal brain slices containing hippocampus. Slices were then placed in a chamber containing ACSF (in mM: 124 NaCl, 3 KCl, 1.25 NaH2PO4·H2O, 2 MgSO4·7H2O, 26 NaHCO3, 10 dextrose, and 2 CaCl2)). […]
For recording, slices were placed in a submerged recording chamber (Warner Instruments, Hamden, CT) with oxygenated ACSF heated to 32° C. and flowing at 2-4 ml/min. […] Data were obtained using an Axopatch 1D amplifier (Axon Instruments, Foster City, CA); data were digitized at 10 kHz and recorded using a Digidata 1320A and pClamp 8.2 software (Molecular Devices, Sunnyvale, CA). […] After obtaining a stable voltage-clamp recording from a CA1 interneuron, the recording was switched to current-clamp mode and injected steps of hyperpolarizing and depolarizing current were used to determine the class of cell being recorded using published firing patterns and action potential (AP) properties (Butt et al., 2005; Flames and Marin, 2005). […]

Each structure is given as a SMILES string.

Consider `C[N+](C)(C)CCCCC(=O)[O-]` [NNN-trimethyl-5-aminovalerate, 5-(trimethylammonio) pentanoate], for which the “T maze: improvement in learning and memory after FMT from young mice” value with C57BL/6J mice (old mice (15-16 months) +ABX+yFMT, 5 mg/kg i.p. 1 h before testing, FIG. 10F) is “abolished”. In addition, the “spatial working memory (T maze test)” value in the assay on C57BL/6J mice (old mice (20-24-month-old)) is on record as “no additional impairing effects”; with C57BL/6J mice (young mice (2-month-old), PBS control) it was “reduced”. Besides, the T maze performance result was “no additional deteriorating effect” with C57BL/6J mice (old mice that had received gut microbiota from old mice (old+ABX+oFMT), FIG. 10F) and “significantly worse” in the assay on C57BL/6J mice (young adult mice (8 weeks), versus vehicle, FIG. 10B). In addition, the “frequencies of spontaneous IPSCs (spIPSCs) in parvalbumin-positive interneurons” value in assay [1] is on record as “increase”.
